{"source": "ChEMBL document CHEMBL3600365", "about": "“Structural and computational study on inhibitory compounds for endonuclease activity of influenza virus polymerase” (Bioorg Med Chem, 2015)", "key": {"[1]": {"assay": "Cytotoxicity against MDCK cells after 24 hrs by CellTiter 96 AQueous one solution cell proliferation assay", "assay_type": "cell-based, Canis lupus familiaris", "conditions": "dog"}, "[2]": {"target": "Polymerase acidic protein (Influenza A virus (A/Puerto Rico/8/1934(H1N1))) (UniProt P03433)", "assay": "Inhibition of Influenza A/Perto Rico/8/34 (PR8) (H1N1) PAN (1 to 197) endonuclease activity expressed in Escherichia coli Rosetta (DE3) using M13mp18 as substrate at 100 uM after 60 mins by agarose gel elctrophoresis"}, "[3]": {"target": "Polymerase acidic protein (Influenza A virus (A/Puerto Rico/8/1934(H1N1)), UniProt P03433)", "assay": "Inhibition of Influenza A/Perto Rico/8/34 (PR8) (H1N1) PA N-terminal domain (1 to 197) endonuclease activity expressed in Escherichia coli Rosetta (DE3) using (6-FAM)-AAT CGC AGG CAG CAC TC-(BHQ-1) as substrate measured every 50 secs for 30 mins by FRET assay"}, "[4]": {"system": "unidentified influenza virus", "assay": "Antiviral activity against Influenza virus infected in MDCK cells assessed as viral RNA content incubated with cells for 30 mins prior to addition of 30 mins preincubated virus-compound mixture for 1 hr followed by 3 times compound washout and again cultured in compound containing virus growth medium for 24 hrs by RT-PCR analysis", "assay_type": "functional, organism-based"}, "Influenza A virus [5]": {"system": "Influenza A virus", "assay": "Antiviral activity against Influenza A virus (A/PR8/34(H1N1)) infected in MDCK cells assessed as inhibition of viral replication after 24 hrs", "assay_type": "functional, organism-based", "conditions": "A/Puerto Rico/8/1934(H1N1)"}, "[6]": {"target": "Polymerase acidic protein (Influenza A virus (A/Puerto Rico/8/1934(H1N1)), UniProt P03433)", "assay": "Inhibition of Influenza A/Puerto Rico/8/34 (H1N1) PA N-terminal domain endonuclease activity expressed in Escherichia coli BL21 (RIL) cells using (6-FAM)TGGCAATATCAGCTCCACA(MGBNFQ) as substrate by fluorescence assay"}, "Influenza A virus [7]": {"system": "Influenza A virus", "assay": "Antiviral activity against Influenza A virus (A/Puerto Rico/8/1934(H1N1)) infected in MDCK cells after 24 hrs by immunofocus assay", "assay_type": "functional, organism-based"}}, "note": "Active and inactive are the calls of the source. The calls are words filed in the database; no cut-off is given here."}
{"smiles": "O=Cc1cc(Cc2ccccc2Cl)cc([N+](=O)[O-])c1O", "values": [{"measurement": "CC50 at 24 h", "setting": "[1]", "result": 74.1, "unit": "µM"}, {"measurement": "inhibition", "setting": "[2]", "result": "Active"}, {"measurement": "IC50", "setting": "[3]", "result": 63, "unit": "µM"}, {"measurement": "EC50", "setting": "[4]", "result": 11.5, "unit": "µM"}]}
{"smiles": "O=C(O)/C(O)=C/C(=O)C1(Cc2ccc(Cl)cc2)CCN(Cc2ccccc2)CC1", "values": [{"measurement": "IC50", "setting": "Influenza A virus [5]", "result": 0.35, "unit": "µM"}]}
{"smiles": "Oc1ccc(/C=N/Nc2ccc(Cl)cc2)c(O)c1O", "values": [{"measurement": "CC50 at 24 h", "setting": "[1]", "result": "> 200", "unit": "µM"}, {"measurement": "inhibition", "setting": "[2]", "result": "Active"}, {"measurement": "IC50", "setting": "[3]", "result": 8.3, "unit": "µM"}, {"measurement": "EC50", "setting": "[4]", "result": 14.4, "unit": "µM"}]}
{"smiles": "O=c1[nH]c(-c2ccc(F)cc2)c(-c2ccc(-c3nnn[nH]3)cc2)cc1O", "values": [{"measurement": "IC50", "setting": "[6]", "result": 0.011, "unit": "µM"}, {"measurement": "EC50", "setting": "Influenza A virus [7]", "result": 11, "unit": "µM"}]}
{"smiles": "O=C(COc1ccc(F)cc1)c1ccc(O)c(O)c1O", "values": [{"measurement": "CC50 at 24 h", "setting": "[1]", "result": "> 200", "unit": "µM"}, {"measurement": "inhibition", "setting": "[2]", "result": "Active"}, {"measurement": "IC50", "setting": "[3]", "result": 9.7, "unit": "µM"}, {"measurement": "EC50", "setting": "[4]", "result": 11.8, "unit": "µM"}]}
